Assays:
Assay type in all cases: in vivo
Set-up in all cases: key: 0 is no effect; 10 is complete control
[1] = system: bamyardgrass (Echinochloa crus-galli); assay: Test B flood test
Method in brief: (§1)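 Flood test on plants grown to the 2-leaf stage; treated plants kept in greenhouse twelve to sixteen days, then visually rated against controls on a 0 (no effect) to 10 (complete control) scale.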

[2] = system: duck salad (Heteranthera limosa); assay: Test B flood test
Method in brief: as §1

[3] = system: rice (Oryza sativa); assay: Test B flood test
Method in brief: as §1

[4] = system: smallflower flatsedge (Cyperus difformis); assay: Test B flood test
Method in brief: as §1

[5] = system: soybean (Glycine max); assay: Test B pre-/postemergence
Excerpt: (§2) Seeds of bedstraw (Galium aparine), blackgrass (Alopecurus myosuroides), broadleaf signalgrass (Brachiaria decumbens), cocklebur (Xanthium strumarium), corn (Zea mays), crabgrass (Digitaria sanguinalis), giant foxtail (Setaria faberii), lambsquarters (Chenopodium album), momingglory (Ipomoea hederacea), pigweed (Amaranthus retroflexus), rape (Brassica napus), soybean (Glycine max), sugar beet (Beta vulgaris), velvetleaf (Abutilon theophrasti), wheat (Triticum aestivum), wild oat (Avena fatua) and purple nutsedge (Cyperus rotundus) tubers were planted and treated preemergence with test chemicals formulated in a non-phytotoxic solvent mixture which included a surfactant.
(§3) At the same time, these crop and weed species were also treated with postemergence applications of test chemicals formulated in the same manner. Plants ranged in height from 2 to 18 cm (1- to 4-leaf stage) for postemergence treatments. Plant species in the flood test consisted of rice (Oryza sativa), smallflower flatsedge (Cyperus difformis), duck salad (Heteranthera limosa) and bamyardgrass (Echinochloa crus-galli) grown to the 2-leaf stage for testing. Treated plants and controls were maintained in a greenhouse for twelve to sixteen days, after which all species were compared to controls and visually evaluated. Plant response ratings, summarized in Table B, are based on a scale of 0 to 10 where 0 is no effect and 10 is complete control. A dash (−) response means no test result.

[6] = system: momingglory (Ipomoea hederacea); assay: Test B pre-/postemergence
Excerpt: as §2, §3

[7] = system: purple nutsedge (Cyperus rotundus); assay: Test B pre-/postemergence; conditions: for Nutsedge plant response rating: Preemergence
Excerpt: as §2, §3

[8] = system: velvetleaf (Abutilon theophrasti); assay: Test B pre-/postemergence
Excerpt: as §2, §3

[9] = system: broadleaf signalgrass (Brachiaria decumbens); assay: Test B pre-/postemergence; conditions: for B. signalgrass plant response rating: Preemergence
Excerpt: as §2, §3

[10] = system: blackgrass (Alopecurus myosuroides); assay: Test B pre-/postemergence; conditions: for Blackgrass plant response rating: Preemergence
Excerpt: as §2, §3

[11] = system: cocklebur (Xanthium strumarium); assay: Test B pre-/postemergence; conditions: for Plant response rating, Cocklebur: Postemergence
Excerpt: as §2, §3

[12] = system: crabgrass (Digitaria sanguinalis); assay: Test B pre-/postemergence; conditions: for Crabgrass plant response rating: Preemergence
Excerpt: as §2, §3

[13] = system: wheat (Triticum aestivum); assay: Test B pre-/postemergence
Excerpt: as §2, §3

[14] = system: pigweed (Amaranthus retroflexus); assay: Test B pre-/postemergence
Excerpt: as §2, §3

[15] = system: sugar beet (Beta vulgaris); assay: Test B pre-/postemergence
Excerpt: as §2, §3

[16] = system: giant foxtail (Setaria faberii); assay: Test B pre-/postemergence
Excerpt: as §2, §3

[17] = system: bedstraw (Galium aparine); assay: Test B pre-/postemergence; conditions: for Plant response rating, Bedstraw: Postemergence; for Bedstraw plant response rating: Preemergence
Excerpt: as §2, §3

[18] = system: corn (Zea mays); assay: Test B pre-/postemergence; conditions: for Corn plant response rating: Preemergence
Excerpt: as §2, §3

[19] = system: wild oat (Avena fatua); assay: Test B pre-/postemergence
Excerpt: as §2, §3

[20] = system: rape (Brassica napus); assay: Test B pre-/postemergence
Excerpt: as §2, §3

[21] = Rate 62 g/ha, Postemergence (flood test)
[22] = Rate 125 g/ha, Postemergence, flood test
[23] = Rate 250 g/ha, Postemergence (flood test species)
[24] = Rate 125 g/ha, Postemergence section (flood test species)
[25] = Rate 250 g/ha, Postemergence (so in the source)

With `Cc1cnc(-c2ccc(Cl)c(Cl)c2)nc1Cc1cccc(C(F)(F)F)c1` [Compound 27] the “Plant response rating, Barnyardgrass” value [1, 21] was 1, the “Plant response rating, Barnyardgrass” value [1, 22] was 2 and the “Plant response rating, Barnyardgrass” value [1, 23] was 3. For the same molecule, the “Plant response rating, Ducksalad” value [2, 21] was 0, the “Plant response rating, Ducksalad” value [2, 22] was 1 and the “Plant response rating, Ducksalad” value [2, 23] was 2. The “Plant response rating, Rice” value [3, 21] was 0, the “Rice plant response rating” value [3, 24] was 1 and the “Plant response rating, Rice” value [3, 23] was 1. The “Plant response rating, S. Flatsedge” value [4, 21] was 5, the “S. Flatsedge plant response rating” value [4, 24] was 5 and the “Plant response rating, S. Flatsedge” value [4, 23] was 5. The “Plant response rating, Soybean” value ([5]; Rate 62 g/ha, Postemergence) was 5, the “Soybean plant response rating” value ([5]; Rate 62 g/ha, Preemergence) was 0 and the “Soybean plant response rating” value ([5]; Rate 125 g/ha, Postemergence) was 5. For the same molecule, the “Plant response rating, Soybean” value ([5]; Rate 125 g/ha, Preemergence) was 0, the “Plant response rating, Soybean” value ([5]; Rate 250 g/ha, Postemergence) was 7 and the “Plant response rating, Soybean” value [5, 25] was 0. The “Plant response rating, Morningglory” value ([6]; Rate 62 g/ha, Postemergence) was 5, the “Morningglory plant response rating” value ([6]; Rate 62 g/ha, Preemergence) was 1 and the “Morningglory plant response rating” value ([6]; Rate 125 g/ha, Postemergence) was 8. For the same molecule, the “Morningglory plant response rating” value ([6]; Rate 125 g/ha, Preemergence) was 2, the “Plant response rating, Morningglory” value ([6]; Rate 250 g/ha, Postemergence) was 8 and the “Plant response rating, Morningglory” value [6, 25] was 2. For the same molecule, the “Plant response rating, Nutsedge” value ([7]; Rate 62 g/ha, Postemergence) was 2, the “Nutsedge plant response rating” value ([7]; Rate 62 g/ha) was 0 and the “Nutsedge plant response rating” value ([7]; Rate 125 g/ha) was 0. For the same molecule, the “Plant response rating, Nutsedge” value [7, 25] was 0, the “Plant response rating, Velvetleaf” value ([8]; Rate 62 g/ha, Postemergence) was 5 and the “Velvetleaf plant response rating” value ([8]; Rate 62 g/ha, Preemergence) was 0. For the same molecule, the “Velvetleaf plant response rating” value ([8]; Rate 125 g/ha, Postemergence) was 7, the “Plant response rating, Velvetleaf” value ([8]; Rate 125 g/ha, Preemergence) was 0 and the “Plant response rating, Velvetleaf” value ([8]; Rate 250 g/ha, Postemergence) was 7. For the same molecule, the “Plant response rating, Velvetleaf” value [8, 25] was 1, the “Plant response rating, B. signalgrass” value ([9]; Rate 62 g/ha, Postemergence) was 3 and the “B. signalgrass plant response rating” value ([9]; Rate 62 g/ha) was 0. The “Plant response rating, B. signalgrass” value ([9]; Rate 125 g/ha, Postemergence) was 5, the “B. signalgrass plant response rating” value ([9]; Rate 125 g/ha) was 1 and the “Plant response rating, B. signalgrass” value ([9]; Rate 250 g/ha, Postemergence) was 5. The “Plant response rating, B. signalgrass” value ([9]; Rate 250 g/ha, Postemergence as printed in head r139 (second section for compounds 26-50)) was 3, the “Plant response rating, Blackgrass” value ([10]; Rate 62 g/ha, Postemergence) was 4 and the “Blackgrass plant response rating” value ([10]; Rate 62 g/ha) was 0. The “Plant response rating, Blackgrass” value ([10]; Rate 125 g/ha, Postemergence) was 4, the “Blackgrass plant response rating” value ([10]; Rate 125 g/ha) was 2 and the “Plant response rating, Blackgrass” value ([10]; Rate 250 g/ha, Postemergence) was 5. The “Plant response rating, Blackgrass” value [10, 25] was 4, the “Plant response rating, Cocklebur” value ([11]; Rate 62 g/ha) was 7 and the “Cocklebur plant response rating” value ([11]; Rate 62 g/ha, Preemergence) was 0. The “Plant response rating, Cocklebur” value ([11]; Rate 125 g/ha) was 7, the “Plant response rating, Cocklebur” value ([11]; Rate 250 g/ha) was 9 and the “Plant response rating, Crabgrass” value ([12]; Rate 62 g/ha, Postemergence) was 3. For the same molecule, the “Crabgrass plant response rating” value ([12]; Rate 62 g/ha) was 1, the “Plant response rating, Crabgrass” value ([12]; Rate 125 g/ha, Postemergence) was 4 and the “Crabgrass plant response rating” value ([12]; Rate 125 g/ha) was 2. The “Plant response rating, Crabgrass” value ([12]; Rate 250 g/ha, Postemergence) was 6, the “Plant response rating, Crabgrass” value [12, 25] was 5 and the “Plant response rating, Wheat” value ([13]; Rate 62 g/ha, Postemergence) was 3. The “Wheat plant response rating” value ([13]; Rate 62 g/ha, Preemergence) was 0, the “Wheat plant response rating” value ([13]; Rate 125 g/ha, Postemergence) was 4 and the “Plant response rating, Wheat” value ([13]; Rate 125 g/ha, Preemergence) was 0. For the same molecule, the “Plant response rating, Wheat” value ([13]; Rate 250 g/ha, Postemergence) was 4, the “Plant response rating, Wheat” value [13, 25] was 1 and the “Plant response rating, Redroot pigweed” value ([14]; Rate 62 g/ha, Postemergence) was 7. For the same molecule, the “Redroot pigweed plant response rating” value ([14]; Rate 62 g/ha, Preemergence) was 2, the “Redroot pigweed plant response rating” value ([14]; Rate 125 g/ha, Postemergence) was 9 and the “Redroot pigweed plant response rating” value ([14]; Rate 125 g/ha, Preemergence) was 6. For the same molecule, the “Plant response rating, Redroot pigweed” value ([14]; Rate 250 g/ha, Postemergence) was 10, the “Plant response rating, Redroot pigweed” value [14, 25] was 7 and the “Plant response rating, Sugarbeets” value ([15]; Rate 62 g/ha, Postemergence) was 9. For the same molecule, the “Sugarbeets plant response rating” value ([15]; Rate 62 g/ha, Preemergence) was 0, the “Sugarbeets plant response rating” value ([15]; Rate 125 g/ha, Postemergence) was 9 and the “Plant response rating, Sugarbeets” value ([15]; Rate 125 g/ha, Preemergence) was 1. The “Plant response rating, Sugarbeets” value ([15]; Rate 250 g/ha, Postemergence) was 10, the “Plant response rating, Sugarbeets” value [15, 25] was 8 and the “Plant response rating, Giant foxtail” value ([16]; Rate 62 g/ha, Postemergence) was 3. For the same molecule, the “Giant foxtail plant response rating” value ([16]; Rate 62 g/ha, Preemergence) was 2, the “Giant foxtail plant response rating” value ([16]; Rate 125 g/ha, Postemergence) was 4 and the “Giant foxtail plant response rating” value ([16]; Rate 125 g/ha, Preemergence) was 5. For the same molecule, the “Plant response rating, Giant foxtail” value ([16]; Rate 250 g/ha, Postemergence) was 4, the “Plant response rating, Giant foxtail” value [16, 25] was 9 and the “Plant response rating, Bedstraw” value ([17]; Rate 62 g/ha) was 8. For the same molecule, the “Bedstraw plant response rating” value ([17]; Rate 62 g/ha) was 0, the “Plant response rating, Bedstraw” value ([17]; Rate 125 g/ha) was 9 and the “Bedstraw plant response rating” value ([17]; Rate 125 g/ha) was 0. For the same molecule, the “Plant response rating, Bedstraw” value ([17]; Rate 250 g/ha) was 9, the “Plant response rating, Corn” value ([18]; Rate 62 g/ha, Postemergence) was 2 and the “Corn plant response rating” value ([18]; Rate 62 g/ha) was 0. The “Plant response rating, Corn” value ([18]; Rate 125 g/ha, Postemergence) was 3, the “Corn plant response rating” value ([18]; Rate 125 g/ha) was 0 and the “Plant response rating, Corn” value ([18]; Rate 250 g/ha, Postemergence) was 3. The “Plant response rating, Corn” value [18, 25] was 0, the “Plant response rating, Wild oats” value ([19]; Rate 62 g/ha, Postemergence) was 3 and the “Wild oats plant response rating” value ([19]; Rate 62 g/ha, Preemergence) was 0. The “Wild oats plant response rating” value ([19]; Rate 125 g/ha, Postemergence) was 4, the “Plant response rating, Wild oats” value ([19]; Rate 125 g/ha, Preemergence) was 1 and the “Plant response rating, Wild oats” value ([19]; Rate 250 g/ha, Postemergence) was 5. For the same molecule, the “Plant response rating, Wild oats” value [19, 25] was 3, the “Plant response rating, Rape” value ([20]; Rate 62 g/ha, Postemergence) was 8 and the “Rape plant response rating” value ([20]; Rate 62 g/ha, Preemergence) was 1. For the same molecule, the “Rape plant response rating” value ([20]; Rate 125 g/ha, Postemergence) was 8, the “Rape plant response rating” value ([20]; Rate 125 g/ha, Preemergence) was 2 and the “Plant response rating, Rape” value ([20]; Rate 250 g/ha, Postemergence) was 9. The “Plant response rating, Rape” value [20, 25] was 3.
